Our source for the AC50 values is patent US9550742B2, “11-OXO-10,11-dihydrodibenzo[B,F][1,4]thiazepine S-oxide derivatives and their use as dopamine D2 receptor antagonists” (The United States of America, as Represented by the …, priority 2013, dated 2017).

This assay addresses T1, D2 DAR (Homo sapiens, UniProt P14416).
T1 construct: expressed in transfected cells; host or cells: HEK293 T-REx, Tet-inducible, with chimeric G-protein Gqi5
The assay is described as follows: D2 Ca^2+ screen assay (calcium accumulation, HEK293 T-REx with Gqi5). The settings on record: dopamine D2 calcium release assay of Example 1; read-out: Ca^2+ AC50. It is filed as cell-based. Here is the method:
The resting concentration of calcium ions (Ca^2+) in the cells' cytoplasm is normally maintained in the range of 10-100 nM. To maintain this low concentration, Ca^2+ is actively pumped from the cytosol to the extracellular space and into the endoplasmic reticulum (ER), and sometimes into the mitochondria. Signaling occurs when the cell is stimulated to release Ca^2+ from intracellular stores. The most common signaling pathway that increases cytoplasmic calcium concentration is the phospholipase C (PLC) pathway. […] IP3 diffuses to the ER, binds to its receptor (IP3 receptor), which is a Ca^2+ channel and, thus, releases Ca^2+ from the ER to the cytosol. To measure this cytosolic Ca^2+ accumulation, we used the Screen Quest™ Fluo-8 Calcium Assay Kit (AAT Bioquest, Sunnyvale, Calif.). Acetoxymethyl (AM) esters bound to Fluo-8™ dye are non-polar molecules that easily cross live cell membranes transporting the dye inside the cell, and are then rapidly hydrolyzed by cellular esterases inside live cells. As Fluo-8™ is freed from AM esters, it binds to Ca^2+ and emits a fluorescent signal at 514 nm that escalates with increasing cytosolic Ca^2±. To measure this calcium flux signal, we used the Functional Drug Screening System (FDSS) (Hamamatsu, Japan), a high throughput screening device that allows optical detection of signal transmissions within living cells in a time-resolving fashion. […] Quest Fluo-8™ calcium reagent was freshly prepared prior to adding to the cells (lyophilized Fluo-8™ dye provided with the kit was re-suspended in 200 μL DMSO as a 500× stock and stored at −20° C.). 2 μL/well of Quest Fluo-8™ calcium dye diluted in HBSS +10 mM HEPES buffer (for every 10 mL buffer, 1 mL of 10× quencher provided in the kit and 20 μL of 500×DMSO stock dye were added) was added to cells with a Multi-Drop Combi (ThermoScientific) and incubated for 45-90 min in the dark at ambient temperature. Then, the plates were introduced into the FDSS where they were pinned with 23 nL of test compound or dopamine controls and were read by FDSS in non-stimulated mode for 180 sec for detection of agonists. […]

T1 sequence (P14416 whole entry): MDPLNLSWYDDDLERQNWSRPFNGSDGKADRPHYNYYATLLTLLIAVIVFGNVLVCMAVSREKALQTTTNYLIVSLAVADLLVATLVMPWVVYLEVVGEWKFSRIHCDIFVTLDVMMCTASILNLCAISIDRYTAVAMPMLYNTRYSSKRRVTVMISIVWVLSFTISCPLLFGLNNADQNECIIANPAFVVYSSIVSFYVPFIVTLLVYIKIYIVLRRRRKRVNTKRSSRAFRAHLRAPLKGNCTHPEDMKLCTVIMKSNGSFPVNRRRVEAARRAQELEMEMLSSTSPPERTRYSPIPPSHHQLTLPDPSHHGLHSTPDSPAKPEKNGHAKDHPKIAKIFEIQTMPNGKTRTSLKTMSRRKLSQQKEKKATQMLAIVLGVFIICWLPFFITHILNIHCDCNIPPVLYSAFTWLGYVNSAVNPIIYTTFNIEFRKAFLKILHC

As for `CCN1C(=O)c2ccccc2[S+]([O-])c2ccc(C(=O)NCc3ccc(C(F)(F)F)cc3)cc21` (stereo not shown) [Compound 9, 10-Ethyl-11-oxo-N-(4-(trifluoromethyl)benzyl)-10,11-dihydrodibenzo[b,f][1,4]thiazepine-8-carboxamide 5-oxide], the half-maximal activity concentration (AC50) (usually the concentration giving half of the maximal activity seen) was under 1 µM.

As for `CN1C(=O)c2ccccc2[S+]([O-])c2ccc(C(=O)NCc3ccc(F)cc3)cc21` (stereo not shown) [Compound 26, N-(4-Fluorobenzyl)-10-methyl-11-oxo-10,11-dihydrodibenzo[b,f][1,4]thiazepine-8-carboxamide 5-oxide], the AC50 is under 1 µM.

On to `CCN1C(=O)c2ccccc2[S+]([O-])c2ccc(C(=O)NCc3ccc(F)cc3)cc21` (stereo not shown) [Compound 10, 10-Ethyl-N-(4-fluorobenzyl)-11-oxo-10,11-dihydrodibenzo[b,f][1,4]thiazepine-8-carboxamide 5-oxide], for which the AC50 is under 1 µM.

For the compound `CCN1C(=O)c2ccccc2[S+]([O-])c2ccc(C(=O)Nc3ccccc3)cc21` (stereo not shown) [Compound 16, 10-Ethyl-11-oxo-N-phenyl-10,11-dihydrodibenzo[b,f][1,4]thiazepine-8-carboxamide 5-oxide], the half-maximal activity concentration (AC50) was under 1 µM.

Turning to `CCCN1C(=O)c2ccccc2[S+]([O-])c2ccc(C(=O)NCc3ccc(OC)cc3)cc21` (stereo not shown) [Compound 21, N-(4-Methoxybenzyl)-11-oxo-10-propyl-10,11-dihydrodibenzo[b,f][1,4]thiazepine-8-carboxamide 5-oxide], the AC50 was under 1 µM.

Regarding `CCN1C(=O)c2ccccc2[S+]([O-])c2ccc(C(=O)NCc3ccc(Cl)cc3)cc21` (stereo not shown) [Compound 11], the concentration at half-maximal activity (AC50) is under 1 µM.

For `CCN1C(=O)c2ccccc2[S+]([O-])c2ccc(C(=O)Nc3ccc(OC)cc3)cc21` (stereo not shown) [Compound 17, 10-Ethyl-N-(4-methoxyphenyl)-11-oxo-10,11-dihydrodibenzo[b,f][1,4]thiazepine-8-carboxamide 5-oxide], the AC50 was under 1 µM.

Regarding `CCN1C(=O)c2ccccc2[S+]([O-])c2ccc(C(=O)NC(C)c3ccccc3)cc21` (stereo not shown) [Compound 5, 10-Ethyl-11-oxo-N-(1-phenylethyl)-10,11-dihydrodibenzo[b,f][1,4]thiazepine-8-carboxamide 5-oxide], the half-maximal activity concentration (AC50) was under 1 µM.

Consider `CN1C(=O)c2ccccc2[S+]([O-])c2ccc(C(=O)NCc3ccccc3)cc21` (stereo not shown) [Compound 25, N-Benzyl-10-methyl-11-oxo-10,11-dihydrodibenzo[b,f][1,4]thiazepine-8-carboxamide 5-oxide], for which the AC50 is under 1 µM.

On to `CCN1C(=O)c2ccccc2[S+]([O-])c2ccc(C(=O)NCc3ccc(C#N)cc3)cc21` (stereo not shown) [Compound 12, N-(4-Cyanobenzyl)-10-ethyl-11-oxo-10,11-dihydrodibenzo[b,f][1,4]thiazepine-8-carboxamide 5-oxide], for which the AC50 is under 1 µM.

As to `CN1C(=O)c2ccccc2[S+]([O-])c2ccc(C(=O)NCc3ccc(Br)cc3)cc21` (stereo not shown) [Compound 29, N-(4-Bromobenzyl)-10-methyl-11-oxo-10,11-dihydrodibenzo[b,f][1,4]thiazepine-8-carboxamide 5-oxide], the AC50 is under 1 µM.

As to `CCN1C(=O)c2ccccc2[S+]([O-])c2ccc(C(=O)NCc3ccc4c(c3)OCO4)cc21` (stereo not shown) [Compound 15, N-(benzo[d][1,3]dioxol-5-ylmethyl)-10-ethyl-11-oxo-10,11dihydrodibenzo[b,f][1,4]thiazepine-8-carboxamide 5-oxide], the concentration at half-maximal activity (AC50) was under 1 µM.

Regarding `CCN1C(=O)c2ccccc2[S+]([O-])c2ccc(C(=O)NCc3ccc(C)cc3)cc21` (stereo not shown) [Compound 8, 10-Ethyl-N-(4-methylbenzyl)-11-oxo-10,11-dihydrodibenzo[b,f][1,4]thiazepine-8-carboxamide 5-oxide], the AC50 was under 1 µM.

Take `CCN1C(=O)c2ccccc2Sc2ccc(C(=O)NCc3ccc(OC)cc3)cc21` [Compound 36, 10-Ethyl-N-(4-methoxybenzyl)-11-oxo-10,11-dihydrodibenzo[b,f][1,4]thiazepine-8-carboxamide]: the AC50 was under 1 µM.

In the case of `COc1ccc(CNC(=O)c2ccc3c(c2)N(C)C(=O)c2ccccc2[S+]3[O-])cc1` (stereo not shown) [Compound 20, N-(4-Methoxybenzyl)-10-methyl-11-oxo-10,11-dihydrodibenzo[b,f][1,4]thiazepine-8-carboxamide 5-oxide], the AC50 was under 1 µM.

`CCN1C(=O)c2ccccc2[S+]([O-])c2ccc(NC(=O)Cc3ccc(OC)cc3)cc21` (stereo not shown) [Compound 45, N-(10-Ethyl-11-oxo-10,11-dihydrodibenzo[b,f][1,4]thiazepin-8-yl)-2-(4-methoxyphenyl)acetamide 5-oxide]: the AC50 is under 1 µM.

For `CN1C(=O)c2ccccc2[S+]([O-])c2ccc(C(=O)NCCN3CCCCC3)cc21` (stereo not shown) [Compound 34, 10-Methyl-11-oxo-N-(2-(piperidin-1-yl)ethyl)-10,11-dihydrodibenzo[b,f][1,4]thiazepine-8-carboxamide 5-oxide], the half-maximal activity concentration (AC50) is under 1 µM.

As for `COc1ccc(NC(=O)c2ccc3c(c2)N(C)C(=O)c2ccccc2[S+]3[O-])cc1` (stereo not shown) [Compound 24, N-(4-Methoxyphenyl)-10-methyl-11-oxo-10,11-dihydrodibenzo[b,f][1,4]thiazepine-8-carboxamide 5-oxide], the half-maximal activity concentration (AC50) is under 1 µM.

Take `CCN1C(=O)c2ccccc2[S+]([O-])c2ccc(C(=O)NCc3ccc(S(C)(=O)=O)cc3)cc21` (stereo not shown) [Compound 13, 10-Ethyl-N-(4-(methylsulfonyl)benzyl)-11-oxo-10,11-dihydrodibenzo[b,f][1,4]thiazepine-8-carboxamide 5-oxide]: the AC50 is under 1 µM.

Turning to `CCN1C(=O)c2ccccc2[S+]([O-])c2ccc(C(=O)NCCc3ccc(OC)cc3)cc21` (stereo not shown) [Compound 18, 10-Ethyl-N-(4-methoxyphenethyl)-11-oxo-10,11-dihydrodibenzo[b,f][1,4]thiazepine-8-carboxamide 5-oxide], the AC50 was under 1 µM.

In the case of `CN1C(=O)c2ccccc2[S+]([O-])c2ccc(C(=O)NCc3cccc(Cl)c3)cc21` (stereo not shown) [Compound 28, N-(3-Chlorobenzyl)-10-methyl-11-oxo-10,11-dihydrodibenzo[b,f][1,4]thiazepine-8-carboxamide 5-oxide], the concentration at half-maximal activity (AC50) is under 1 µM.

Take `CCN1C(=O)c2ccccc2[S+]([O-])c2ccc(C(=O)NCc3ccc(SC)cc3)cc21` (stereo not shown) [Compound 6, 10-Ethyl-N-(4-(methylthio)benzyl)-11-oxo-10,11-dihydrodibenzo[b,f][1,4]thiazepine-8-carboxamide 5-oxide]: the half-maximal activity concentration (AC50) is under 1 µM.

Turning to `CN1C(=O)c2ccccc2[S+]([O-])c2ccc(C(=O)NCCN3CCCC3)cc21` (stereo not shown) [Compound 33, 10-Methyl-11-oxo-N-(2-(pyrrolidin-1-yl)ethyl)-10,11-dihydrodibenzo[b,f][1,4]thiazepine-8-carboxamide 5-oxide], the half-maximal activity concentration (AC50) is under 1 µM.

In the case of `CN1C(=O)c2ccccc2[S+]([O-])c2ccc(C(=O)NCc3cccnc3)cc21` (stereo not shown) [Compound 31, 10-Methyl-11-oxo-N-(pyridin-3-ylmethyl)-10,11-dihydrodibenzo[b,f][1,4]thiazepine-8-carboxamide 5-oxide], the AC50 was under 1 µM.

As for `CN(C)CCCNC(=O)c1ccc2c(c1)N(C)C(=O)c1ccccc1[S+]2[O-]` (stereo not shown) [Compound 35, N-(3-(Dimethylamino)propyl)-10-methyl-11-oxo-10,11-dihydrodibenzo[b,f][1,4]thiazepine-8-carb oxamide 5-oxide], the AC50 was under 1 µM.
